Data published in ChEMBL document CHEMBL4364246, “Synthesis and biological evaluation of 5-aminoethyl benzophenanthridone derivatives as DNA topoisomerase IB inhibitors” (Eur J Med Chem, 2019).

Experiments:
CCRF-CEM = experiment: Growth inhibition of human CCRF-CEM cells incubated for 48 hrs by sulforhodamine B assay; format: functional
K562 = experiment: Growth inhibition of human K562 cells incubated for 48 hrs by sulforhodamine B assay; format: functional; details: K562, 48 h
MOLT-4 = experiment: Growth inhibition of human MOLT4 cells incubated for 48 hrs by sulforhodamine B assay; format: functional; details: MOLT-4, 48 h
RPMI-8226 = experiment: Growth inhibition of human RPMI8226 cells incubated for 48 hrs by sulforhodamine B assay; format: functional; details: RPMI-8226, 48 h
SR = experiment: Growth inhibition of human SR cells incubated for 48 hrs by sulforhodamine B assay; format: functional
A549 = experiment: Growth inhibition of human A549/ATCC cells incubated for 48 hrs by sulforhodamine B assay; format: functional; details: A549, 48 h
EKVX = experiment: Growth inhibition of human EKVX cells incubated for 48 hrs by sulforhodamine B assay; format: functional
NCI-H23 = experiment: Growth inhibition of human NCI-H23 cells incubated for 48 hrs by sulforhodamine B assay; format: functional; details: NCI-H23, 48 h
NCI-H522 = experiment: Growth inhibition of human NCI-H522 cells incubated for 48 hrs by sulforhodamine B assay; format: functional; details: NCI-H522, 48 h
SF-268 = experiment: Growth inhibition of human SF268 cells incubated for 48 hrs by sulforhodamine B assay; format: functional; details: SF-268, 48 h
SF-295 = experiment: Growth inhibition of human SF295 cells incubated for 48 hrs by sulforhodamine B assay; format: functional; details: SF-295, 48 h
SNB-19 = experiment: Growth inhibition of human SNB19 cells incubated for 48 hrs by sulforhodamine B assay; format: functional; details: SNB-19, 48 h
M14 = experiment: Growth inhibition of human M14 cells incubated for 48 hrs by sulforhodamine B assay; format: functional; details: M14, 48 h
MDA-MB-435 = experiment: Growth inhibition of human MDA-MB-435 cells incubated for 48 hrs by sulforhodamine B assay; format: functional; details: MDA-MB-435, 48 h
UACC-62 = experiment: Growth inhibition of human UACC62 cells incubated for 48 hrs by sulforhodamine B assay; format: functional; details: UACC-62, 48 h
HCT-116 [1] = experiment: Growth inhibition of human HCT116 cells incubated for 48 hrs by sulforhodamine B assay; format: functional; details: HCT-116, 48 h
SW-620 = experiment: Growth inhibition of human SW620 cells incubated for 48 hrs by sulforhodamine B assay; format: functional; details: SW-620, 48 h
A498 = experiment: Growth inhibition of human A498 cells incubated for 48 hrs by sulforhodamine B assay; format: functional; details: A498, 48 h
ACHN = experiment: Growth inhibition of human ACHN cells incubated for 48 hrs by sulforhodamine B assay; format: functional
UO-31 = experiment: Growth inhibition of human UO31 cells incubated for 48 hrs by sulforhodamine B assay; format: functional; details: UO-31, 48 h
Hs-578T = experiment: Growth inhibition of human Hs 578T cells incubated for 48 hrs by sulforhodamine B assay; format: functional
BT-549 = experiment: Growth inhibition of human BT549 cells incubated for 48 hrs by sulforhodamine B assay; format: functional; details: BT-549, 48 h
IGROV-1 = experiment: Growth inhibition of human IGROV1 cells incubated for 48 hrs by sulforhodamine B assay; format: functional; details: IGROV-1, 48 h
OVCAR-3 = experiment: Growth inhibition of human OVCAR3 cells incubated for 48 hrs by sulforhodamine B assay; format: functional; details: OVCAR-3, 48 h
OVCAR-5 = experiment: Growth inhibition of human OVCAR5 cells incubated for 48 hrs by sulforhodamine B assay; format: functional; details: OVCAR-5, 48 h
NCI/ADR-RES = experiment: Growth inhibition of human NCI/ADR-RES cells incubated for 48 hrs by sulforhodamine B assay; format: functional
PC-3 = experiment: Growth inhibition of human PC3 cells incubated for 48 hrs by sulforhodamine B assay; format: functional; details: PC-3, 48 h
HCT-116 [2] = experiment: Growth inhibition of human HCT116 cells expressing siTOP1 incubated for 72 hrs by MTT assay; format: functional; details: HCT-116, 72 h
[3] = Growth inhibition of human DU145/RC0.1 cells harboring TOP1 R364H mutant incubated for 72 hrs by MTT assay; format: functional; details: DU-145, 72 h
HCT-116 [4] = experiment: Induction of apoptosis in human HCT116 cells assessed as increase in apoptotic cells incubated for 24 hrs by FITC and PI staining based flow cytometric analysis; format: functional, cell-based
[5] = Cmax in Sprague-Dawley rat at 5 mg/kg, ig measured for 0.083 to 4 hrs by LC-MS/MS analysis; format: ADME, organism-based; design: dose 5 mg/kg, route […]; details: in vivo, po
[6] = AUC (0 to infinity) in Sprague-Dawley rat at 1 mg/kg, iv measured for 0.083 to 4 hrs by LC-MS/MS analysis; format: ADME, organism-based; design: dose 1 mg/kg, route intravenous, time infinity; details: in vivo
[7] = Acute toxicity in Kunming mouse assessed as mortality at 300 mg/kg, ip administrated as single dose measured within 5 days after drug administration; format: organism-based; details: in vivo, 120 h
HCT-116 [8] = experiment: Antitumour activity against human HCT116 cells xenografted in athymic nude nu/nu mouse assessed as inhibition in tumor weight at 5 mg/kg administrated daily by caliper method relative to control; format: functional
MCF7 [9] = experiment: Antitumour activity against human MCF7 cells xenografted in athymic nude nu/nu mouse assessed as inhibition in tumor weight at 10 mg/kg administrated daily by caliper method relative to control; format: functional
[10] = Acute toxicity in Kunming mouse assessed as mortality at 153.6 to 240 mg/kg, ip administrated as single dose measured for 7 days post drug administration; format: organism-based; details: in vivo, 168 h
[11] = test system: Panel NCI-60 (60 carcinoma cell lines); experiment: Growth inhibition of human NCI60 incubated for 48 hrs by sulforhodamine B assay; format: functional
HCT-116 [12] = experiment: cells; details: Homo sapiens, HCT-116, 72 h
MCF7 [13] = experiment: cells; details: Homo sapiens, MCF7, 72 h
DU-145 = experiment: cells; details: Homo sapiens, DU-145, 72 h

| SMILES | GI50 (CCRF-CEM) | GI50 (K562) | GI50 (MOLT-4) | GI50 (RPMI-8226) | GI50 (SR) | GI50 (A549) | GI50 (EKVX) | GI50 (NCI-H23) | GI50 (NCI-H522) | GI50 (SF-268) | GI50 (SF-295) | GI50 (SNB-19) | GI50 (M14) | GI50 (MDA-MB-435) | GI50 (UACC-62) | GI50 (HCT-116 [1]) | GI50 (SW-620) | GI50 (A498) | GI50 (ACHN) | GI50 (UO-31) | also measured |
| --- | --- | --- | --- | --- | --- | --- | --- | --- | --- | --- | --- | --- | --- | --- | --- | --- | --- | --- | --- | --- | --- |
| CNCCn1c(=O)c2cc(OC)c(OC)cc2c2ccc3cc4c(cc3c21)OCO4 | 20.1 nM | 39.4 nM | 23.4 nM | 76.3 nM | 17.3 nM | 94.8 nM | 202 nM | 90.6 nM | 27.4 nM | 90.3 nM | 34.6 nM | 116 nM | 58.1 nM | 118 nM | 45.1 nM | 51.5 nM | 65.8 nM | 127 nM | 85.6 nM | 104 nM | GI50 (Hs-578T): 904 nM; GI50 (BT-549): 202 nM; GI50 (IGROV-1): 145 nM; GI50 (OVCAR-3): 166 nM; GI50 (OVCAR-5): 183 nM; GI50 (NCI/ADR-RES): 165 nM; GI50 (PC-3): 112 nM; GI50 (HCT-116 [2]): 320 nM; GI50 [3]: 430 nM; Activity (HCT-116 [4]): Dose-dependent effect; Cmax [5]: 19 ng/mL; AUC(0-inf) [6]: 49.5 ng·h/mL; Activity [7]: Toxic; inhibition in vivo at 5 mg/kg (HCT-116 [8]): 49.3%; inhibition in vivo at 10 mg/kg (MCF7 [9]): 56.9%; Activity [10]: Toxic; GI50 [11]: 97.7 nM; GI50 (HCT-116 [12]): 36 nM; GI50 (MCF7 [13]): 90 nM; GI50 (DU-145): 2 nM |
| COc1cc2c(=O)n(CCN)c3c4cc5c(cc4ccc3c2cc1OC)OCO5 | 150 nM | 161 nM | 63.3 nM | 257 nM | 90.7 nM | 584 nM | 1360 nM | 451 nM | 87.5 nM | 442 nM | 279 nM | 398 nM | 324 nM | 759 nM | 278 nM | 285 nM | 243 nM | 1230 nM | 366 nM | 350 nM | GI50 (Hs-578T): 1960 nM; GI50 (BT-549): 918 nM; GI50 (IGROV-1): 500 nM; GI50 (OVCAR-3): 826 nM; GI50 (OVCAR-5): 1200 nM; GI50 (NCI/ADR-RES): 1010 nM; GI50 (PC-3): 532 nM; GI50 [11]: 525 nM; GI50 (HCT-116 [12]): 290 nM; GI50 (MCF7 [13]): 100 nM; GI50 (DU-145): 14 nM |
